Results as given in patent US11992552B2, “Geometric configurations for gastric residence systems” (Lyndra Therapeutics, Inc., priority 2015, dated 2024).

How the values were obtained:
[1] = Behaviour over seven days in simulated gastric fluid; assay type: physicochemical
[2] = Shear-lap joint adhesion test (ASTM D3163) of enteric materials; assay type: physicochemical; conditions: plasticizer with Eudragit L100-55 (70%/30% enteric material/plasticizer), acetone as solvent, PCL sheets
Text: The influence of solvent (acetone, isopropyl alcohol, and ethyl acetate) and plasticizer (Eudragit NM, Plastoid B, Triethyl Citrate, and Triacetin) on the adhesion force of enteric materials were quantified using ASTM D3163, a standardized shear-lap joint mechanical test. The top figure A illustrates a side view of the experimental setup. Two 2-mm thick PCL (Mn 55 k) polymer sheets are adhered to an enteric material, Eudragit L100-55 (methyl methacrylate) combined with a plasticizer (in a 70%/30% enteric material/plasticizer ratio), using a solvent and pressure. The polymer sheets are then loaded into a tensile testing machine and pulled apart. The force/stress that causes the linker-polymer bond to break is recorded.

In the case of `CC(=O)OCC(COC(C)=O)OC(C)=O` [Triacetin], the “release of plasticizer from a polymer formulation” value [1] is reported as “releases from a polymer formulation in a time-dependent manner over seven days” and the adhesion force [2] is reported as “greatest adhesion force”.
